In patent US9695155B2, “Herbicidal substituted pyrimidinyloxy benzene compounds” (E. I. DU PONT DE NEMOURS AND COMPANY, priority 2013, dated 2017):

What was measured:
rice = assay: Test B flooded paddy test; type: in vivo, Oryza sativa; settings: Oryza sativa; Flood, 250 g ai/ha; 0 to 100 scale where 0 is no effect and 100 is complete control; read-out: Plant response rating, Rice
Method in brief: (§1)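 Plants were grown to the 2-leaf stage, then pots were flooded to 3 cm above the soil and compounds were applied directly into the paddy water. That depth was held throughout, and after 13 to 15 days in the greenhouse injury was rated visually against controls on a 0–100 scale (0 no effect, 100 complete control).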

wheat, winter = assay: Test C postemergence; type: in vivo, Triticum aestivum; settings: Triticum aestivum, post-emergence
Method in brief: (§2)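 Preemergence: seeds sown in a loam soil–sand blend and sprayed with test chemical in a non-phytotoxic solvent mixture containing surfactant. Postemergence: plants at 2 to 18 cm (1- to 4-leaf stage) in peat-based medium, treated with the same formulation. Greenhouse 13 to 15 days, then visual rating 0 (no effect) to 100 (complete control).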

sedge, umbrella = assay: Test B flooded paddy test; type: in vivo, Cyperus difformis; settings: Cyperus difformis, Flood, 250 g ai/ha; 0 to 100 scale where 0 is no effect and 100 is complete control; read-out: Plant response rating, Sedge, Umbrella
Method in brief: as §1

barnyardgrass [1] = assay: Test A preemergence; type: in vivo, Echinochloa crus-galli; settings: Echinochloa crus-galli, pre-emergence, 240 h
Method in brief: (§3)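 Greenhouse pot test, loam/sand soil. Formulation: non-phytotoxic solvent mix plus surfactant. Pre: directed spray onto soil after sowing. Post: plants at 1–2 leaf, 2–10 cm. Rated visually vs untreated controls at ~10 d, 0 (no effect) to 100 (complete control).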

galium = assay: Test C postemergence; type: in vivo, Galium aparine; settings: Galium, post-emergence
Method in brief: as §2

lambsquarters = assay: Test C postemergence; type: in vivo, Chenopodium album; settings: Chenopodium album, post-emergence
Method in brief: as §2

velvetleaf = assay: Test C postemergence; type: in vivo, Abutilon theophrasti; settings: Abutilon theophrasti, post-emergence
Method in brief: as §2

giant foxtail = assay: Test A preemergence; type: in vivo, Setaria faberii; settings: Setaria faberi, pre-emergence, 240 h
Method in brief: as §3

yellow nutsedge = assay: Test C postemergence; type: in vivo, Cyperus esculentus; settings: Cyperus, post-emergence
Method in brief: as §2

morningglory = assay: Test C postemergence; type: in vivo, Ipomoea coccinea; settings: Ipomoea, post-emergence
Method in brief: as §2

corn = assay: Test A preemergence; type: in vivo, Zea mays; settings: Zea mays, pre-emergence, 240 h
Method in brief: as §3

barnyardgrass [2] = assay: Test B flooded paddy test; type: in vivo, Echinochloa crus-galli; settings: Echinochloa crus-galli; Flood, 250 g ai/ha; 0 to 100 scale where 0 is no effect and 100 is complete control; read-out: Plant response rating, Barnyardgrass
Method in brief: as §1

chickweed = assay: Test C postemergence; type: in vivo, Stellaria media; settings: Stellaria media, post-emergence
Method in brief: as §2

ragweed = assay: Test C postemergence; type: in vivo, Ambrosia elatior; settings: Ambrosia artemisiifolia, post-emergence
Method in brief: as §2

Heteranthera limosa = assay: Test B flooded paddy test; type: in vivo; settings: Heteranthera limosa, Flood, 250 g ai/ha; 0 to 100 scale where 0 is no effect and 100 is complete control; read-out: Plant response rating, Ducksalad
Method in brief: as §1

wheat = assay: Test A preemergence; type: in vivo, Triticum aestivum
Method in brief: as §3

[3] = 125 g ai/ha, 0 to 100 scale where 0 is no effect and 100 is complete control

## N#Cc1cccc(Oc2ncc(F)cn2)c1-n1cc(C(F)(F)F)cn1 [Compound 79, 3-[(5-fluoro-2-pyrimidinyl)oxy]-2-[4-(trifluoromethyl)-1H-pyrazol-1-yl]benzonitrile]
rice
  plant injury at 250 g/ha: 45%
wheat, winter; 125 g ai/ha, postemergence, read-out: Plant response rating (0 to 100), Wheat
  plant injury at 125 g/ha: 5%
wheat, winter; 250 g ai/ha, postemergence, read-out: Plant response rating (0 to 100), Wheat
  plant injury at 250 g/ha: 35%
wheat, winter; Postemergence, 31 g ai/ha, scale 0 to 100 (0 no effect, 100 complete control), 13 to 15 days, read-out: Plant response rating, Wheat
  plant injury at 31 g/ha: 0%
wheat, winter; Postemergence, 62 g ai/ha, scale 0 to 100 (0 no effect, 100 complete control), read-out: Plant response rating, Wheat
  plant injury at 62 g/ha: 5%
sedge, umbrella
  pest or weed control at 250 g/ha: 95%
Barnyardgrass [1]; 125 g ai/ha, 0 to 100 scale where 0 is no effect and 100 is complete control, read-out: Plant response rating, Barnyardgrass
  pest or weed control at 125 g/ha: 100%
Barnyardgrass [1]; 500 g ai/ha, 0 to 100 scale, 0 no effect, 100 complete control, approx. 10 days, read-out: Barnyardgrass plant response rating
  pest or weed control at 500 g/ha: 100%
galium; 125 g ai/ha, postemergence, read-out: Plant response rating (0 to 100), Galium
  pest or weed control at 125 g/ha: 80%
galium; 250 g ai/ha, postemergence, read-out: Plant response rating (0 to 100), Galium
  pest or weed control at 250 g/ha: 95%
galium; Postemergence, 31 g ai/ha, scale 0 to 100 (0 no effect, 100 complete control), 13 to 15 days, read-out: Plant response rating, Galium
  pest or weed control at 31 g/ha: 65%
galium; Postemergence, 62 g ai/ha, scale 0 to 100 (0 no effect, 100 complete control), read-out: Plant response rating, Galium
  pest or weed control at 62 g/ha: 75%
lambsquarters; 125 g ai/ha, postemergence, read-out: Plant response rating (0 to 100), Lambsquarters
  pest or weed control at 125 g/ha: 95%
lambsquarters; 250 g ai/ha, postemergence, read-out: Plant response rating (0 to 100), Lambsquarters
  pest or weed control at 250 g/ha: 98%
lambsquarters; Postemergence, 31 g ai/ha, scale 0 to 100 (0 no effect, 100 complete control), 13 to 15 days, read-out: Plant response rating, Lambsquarters
  pest or weed control at 31 g/ha: 90%
lambsquarters; Postemergence, 62 g ai/ha, scale 0 to 100 (0 no effect, 100 complete control), read-out: Plant response rating, Lambsquarters
  pest or weed control at 62 g/ha: 95%
velvetleaf; 125 g ai/ha, postemergence, read-out: Plant response rating (0 to 100), Velvetleaf
  pest or weed control at 125 g/ha: 70%
velvetleaf; 250 g ai/ha, postemergence, read-out: Plant response rating (0 to 100), Velvetleaf
  pest or weed control at 250 g/ha: 90%
velvetleaf; Postemergence, 31 g ai/ha, scale 0 to 100 (0 no effect, 100 complete control), 13 to 15 days, read-out: Plant response rating, Velvetleaf
  pest or weed control at 31 g/ha: 55%
velvetleaf; Postemergence, 62 g ai/ha, scale 0 to 100 (0 no effect, 100 complete control), read-out: Plant response rating, Velvetleaf
  pest or weed control at 62 g/ha: 70%
Giant foxtail; 125 g ai/ha, 0 to 100 scale where 0 is no effect and 100 is complete control, read-out: Plant response rating, Foxtail, Giant
  pest or weed control at 125 g/ha: 100%
Giant foxtail; 500 g ai/ha, 0 to 100 scale, 0 no effect, 100 complete control, approx. 10 days, read-out: Foxtail, Giant plant response rating
  pest or weed control at 500 g/ha: 100%
Yellow nutsedge; 125 g ai/ha, postemergence, read-out: Plant response rating (0 to 100), Nutsedge, Yellow
  pest or weed control at 125 g/ha: 5%
Yellow nutsedge; 250 g ai/ha, postemergence, read-out: Plant response rating (0 to 100), Nutsedge, Yellow
  pest or weed control at 250 g/ha: 25%
Yellow nutsedge; Postemergence, 31 g ai/ha, scale 0 to 100 (0 no effect, 100 complete control), 13 to 15 days, read-out: Plant response rating, Nutsedge, Yellow
  pest or weed control at 31 g/ha: 5%
Yellow nutsedge; Postemergence, 62 g ai/ha, scale 0 to 100 (0 no effect, 100 complete control), read-out: Plant response rating, Nutsedge, Yellow
  pest or weed control at 62 g/ha: 5%
morningglory; 125 g ai/ha, postemergence, read-out: Plant response rating (0 to 100), Morningglory
  pest or weed control at 125 g/ha: 95%
morningglory; 250 g ai/ha, postemergence, read-out: Plant response rating (0 to 100), Morningglory
  pest or weed control at 250 g/ha: 98%
morningglory; Postemergence, 31 g ai/ha, scale 0 to 100 (0 no effect, 100 complete control), 13 to 15 days, read-out: Plant response rating, Morningglory
  pest or weed control at 31 g/ha: 70%
morningglory; Postemergence, 62 g ai/ha, scale 0 to 100 (0 no effect, 100 complete control), read-out: Plant response rating, Morningglory
  pest or weed control at 62 g/ha: 95%
corn; [3]
  Corn plant response rating (crop injury, 0 = no effect, 100 = complete kill) at 125 g/ha: 80%
corn; 500 g ai/ha, 0 to 100 scale, 0 no effect, 100 complete control, approx. 10 days, read-out: Corn plant response rating
  plant injury at 500 g/ha: 100%
Barnyardgrass [2]
  pest or weed control at 250 g/ha: 40%
chickweed; 125 g ai/ha, postemergence, read-out: Plant response rating (0 to 100), Chickweed
  pest or weed control at 125 g/ha: 90%
chickweed; 250 g ai/ha, postemergence, read-out: Plant response rating (0 to 100), Chickweed
  pest or weed control at 250 g/ha: 95%
chickweed; Postemergence, 31 g ai/ha, scale 0 to 100 (0 no effect, 100 complete control), 13 to 15 days, read-out: Plant response rating, Chickweed
  pest or weed control at 31 g/ha: 50%
chickweed; Postemergence, 62 g ai/ha, scale 0 to 100 (0 no effect, 100 complete control), read-out: Plant response rating, Chickweed
  pest or weed control at 62 g/ha: 65%
ragweed; 125 g ai/ha, postemergence, read-out: Plant response rating (0 to 100), Ragweed
  pest or weed control at 125 g/ha: 70%
ragweed; 250 g ai/ha, postemergence, read-out: Plant response rating (0 to 100), Ragweed
  pest or weed control at 250 g/ha: 85%
ragweed; Postemergence, 31 g ai/ha, scale 0 to 100 (0 no effect, 100 complete control), 13 to 15 days, read-out: Plant response rating, Ragweed
  pest or weed control at 31 g/ha: 55%
ragweed; Postemergence, 62 g ai/ha, scale 0 to 100 (0 no effect, 100 complete control), read-out: Plant response rating, Ragweed
  pest or weed control at 62 g/ha: 70%
Heteranthera limosa
  pest or weed control at 250 g/ha: 95%
wheat; [3]
  Plant response rating, Wheat: 70
wheat; Triticum aestivum, pre-emergence, 240 h, 500 g ai/ha, 0 to 100 scale, 0 no effect, 100 complete control, approx. 10 days, read-out: Wheat plant response rating
  plant injury at 500 g/ha: 100%
